{"source": "patent US6846913B1", "about": "“Crude extract from Viscum album coloratum, and proteins and lectins isolated therefrom” (Mistle Biotech Co., Ltd., priority 1999, dated 2005)"}
{"tested_on": "hemagglutination of KML-IIU and KML-IIL", "parameters": "species or system Korean mistletoe", "conditions": "sugars stepwise diluted from 100 mM", "units": {"Minimal Conc. (mM) necessary to inhibit the hemagglutination": "mM"}}
{"compound": "O=C[C@H](O)[C@@H](O)[C@@H](O)[C@H](O)CO", "note": "[Galactose]", "Minimal Conc. (mM) necessary to inhibit the hemagglutination": 6}
{"compound": "OC[C@H]1O[C@@H](O[C@H]2[C@H](O)[C@@H](O)C(O)O[C@@H]2CO)[C@H](O)[C@@H](O)[C@H]1O", "note": "(stereo partly shown) [Lactose]", "Minimal Conc. (mM) necessary to inhibit the hemagglutination": 3}
{"compound": "CC(=O)N[C@H]1C(O)O[C@H](CO)[C@H](O)[C@@H]1O", "note": "(stereo partly shown) [N-Acetylgalactosamine]", "Minimal Conc. (mM) necessary to inhibit the hemagglutination": 3}
{"compound": "CC(=O)N[C@H]1C(O)O[C@H](CO)[C@@H](O)[C@@H]1O", "note": "(stereo partly shown) [N-Acetylglucosamine]", "Minimal Conc. (mM) necessary to inhibit the hemagglutination": ">100"}
